Assay results: article PMC12002301, “Discovery and functional characterization of a bombesin-type neuropeptide signaling system in an invertebrate” (Proceedings of the National Academy of Sciences of the …, 2025)

System: ArBNR3
Experiment: Luminescence (GFP-aequorin Ca2+) assay, CHO-K1 cells coexpressing ArBNR3 and Gqs5
Type: cell-based, Asterias rubens
Conditions: ArBNR3, words; up to 10^-5 M
Procedure: Having investigated relationships of eleven A. rubens BN-type receptor candidates (ArBNR1-11) with BN-type, ET-type, and CCHa/EP-type receptors in other taxa, ArBNR1 was identified as the best candidate and therefore this was selected for experimental testing. However, two other receptors (ArBNR2 and ArBNR3) were also tested. The methods employed for functional characterization of A. rubens neuropeptide receptors have been described previously ([57]) and a description of the methods employed in this study is included in SI Appendix, SI Methods. […]
Functional characterization of A. rubens BN-type receptors
Two cDNAs encoding ArBNR1 and ArBNR3 were cloned from A. rubens radial nerve cord cDNA using Q5 polymerase (NEB, Cat. no. M0491S) and PCR with specific primers (SI Appendix, Table S5). To facilitate expression of the cloned receptors, the forward primers were designed to contain a partial Kozak consensus sequence (ACC) before the ATG start codon. Then, PCR products were inserted into the mammalian expression vector pcDNA 3.1(+) (Invitrogen, Cat. no.
V79020) that had been cut in advance with the restriction enzyme EcoRV (NEB, Cat. no. […] Successful ligation and the direction of the insert was determined by restriction enzyme digestion and sequencing (TubeSeq service; Eurofins Genomics). […]
identical to residues 18 - 270 of the protein XP_033631283.1, which was determined from genome […]

NYNRVFGPTY-NH2 [ArBN5-14, C-terminally amidated 10-residue peptide corresponding to the C-terminal region of ArBN]
peptide-induced luminescence: did not trigger luminescence

EPMPSSLALYIANLSP-NH2 [ArBNP65-81, C-terminally amidated 16-residue peptide predicted to be derived from residues 65 to 81 of ArBNP]
peptide-induced luminescence: did not trigger luminescence
